Experiment: HBSAg ELISA assay: HepG2-Clone42 cells were seeded in into black clear-bottom 96-well plates at a concentration of 6.0×10^4 cells/well. 24 hours post-seeding, the cells were treated with 200 μl/well of media containing five-fold serial dilutions of compounds in DMSO. DMSO alone was used as the no drug control. The final DMSO concentration in all wells was 0.5%. The HBsAg ELISA kit (Alpha Diagnostic International, San Antonio, Tex., USE, Catalog #4110) was used to determine the level (semi-quantitative) of secreted HBV sAg.

SMILES | EC50 [nM]
COCCCOc1cc2c(cc1OC)-c1c(F)c(=O)c(C(=O)O)cn1C1[C@@H]2OCC1(C)C (stereo partly drawn) | 0.8
COCCCOc1cc2c(cc1Cl)-c1cc(=O)c(C(=O)O)cn1[C@H]1[C@@H]2CCC1(C)C | 0.1
COCCCOc1cc2c(cc1OC)-c1cc(=O)c(C(=O)O)cn1C1[C@@H]2COC1(C)C (stereo partly drawn) | 1
